From patent US20110245242A1, “Heterocyclically Substituted Anilinopyrimides” (Bayer CropScience AG, priority 2008, published 2011)

Assay: log P by HPLC on reversed-phase columns (C 18), method [a], acidic range pH 2.3
Assay type: physicochemical
Conditions: pH 2.3
Method: The log P values were measured in accordance with EEC Directive 79/831 Annex V.A8 by HPLC (High Performance Liquid Chromatography) on reversed-phase columns (C 18) using the methods below: [a] The determination was carried out in the acidic range at pH 2.3 using the mobile phases 0.1% aqueous phosphoric acid and acetronitrile linear gradient from 10% acetonitrile to 95% acetronitrile.

Row | Structure (SMILES) | log p | log P (pH 2.3)
1 | CC1CCN(c2cccc(Nc3ncc(Cl)c(NC4CC4)n3)c2)C1=O (stereo not drawn) [Example 26] | 1.76[a] | –
2 | CCC1COC(=O)N1c1cccc(Nc2ncc(Br)c(NC3CC3)n2)c1 (stereo not drawn) [Example 32] | 2.01[a] | –
3 | CNc1nc(Nc2cccc(N3CCCC3=O)c2)ncc1Cl [Example 38] | 1.05[a] | –
4 | CC(C)C1COC(=O)N1c1cccc(Nc2ncc(Cl)c(NC3CC3)n2)c1 (stereo not drawn) [Example 39] | 2.13[a] | –
5 | CC(C)C1COC(=O)N1c1cccc(Nc2ncc(Br)c(NC3CC3)n2)c1 (stereo not drawn) [Example 45] | 2.24[a] | –
6 | CC(C)C1COC(=O)N1c1cccc(Nc2ncc(Cl)c(NC3CCC3)n2)c1 (stereo not drawn) [Example 46] | 2.41[a] | –
7 | CC(C)CC1COC(=O)N1c1cccc(Nc2ncc(Cl)c(NC3CC3)n2)c1 (stereo not drawn) [Example 47] | 2.54[a] | –
8 | CC(C)CC1COC(=O)N1c1cccc(Nc2ncc(Br)c(NC3CC3)n2)c1 (stereo not drawn) [Example 48] | 2.69[a] | –
9 | CC(C)CC1COC(=O)N1c1cccc(Nc2ncc(Cl)c(NC3CCC3)n2)c1 (stereo not drawn) [Example 49] | 2.83[a] | –
10 | CC(C)CC1COC(=O)N1c1cccc(Nc2ncc(Br)c(NC3CCC3)n2)c1 (stereo not drawn) [Example 50] | 3.05[a] | –
11 | O=C1CCCCCN1c1cccc(Nc2ncc(Br)c(NC3CC3)n2)c1 [Example 54] | 1.82[a] | –
12 | O=C1CCCCCN1c1cccc(Nc2ncc(Cl)c(NC3CC3)n2)c1 [Example 55] | 1.7[a] | –
13 | CC1COC(=O)N1c1cccc(Nc2ncc(Cl)c(NC3CCC3)n2)c1 (stereo not drawn) [Example 57] | 1.81[a] | –
14 | O=C1CCCCN1c1cccc(Nc2ncc(F)c(NC3CCC3)n2)c1 [Example 58] | 1.29[a] | –
15 | O=C1CCC(CO)N1c1cccc(Nc2ncc(Cl)c(NC3CC3)n2)c1 (stereo not drawn) [Example 86] | 0.98[a] | –
16 | O=C1CCC(c2ccccc2)N1c1cccc(Nc2ncc(Cl)c(NC3CC3)n2)c1 (stereo not drawn) [Example 87] | 2.1[a] | –
17 | C[C@@H]1COC(=O)N1c1cccc(Nc2ncc(Cl)c(NC3CCC3)n2)c1 [Example 102] | 1.56[a] | –
18 | C[C@@H]1COC(=O)N1c1cccc(Nc2ncc(Cl)c(NC3CC3)n2)c1 [Example 103] | 1.8[a] | –
19 | CC(C)[C@H]1COC(=O)N1c1cccc(Nc2ncc(Cl)c(N(C)C3CC3)n2)c1 [Example 115] | 3.09[a] | –
20 | CCC1=C(C)CN(c2cccc(Nc3ncc(Br)c(NC4CC4)n3)c2)C1=O [Example 232] | 2.42[a] | –
21 | FC(F)CNc1nc(Cl)ncc1Cl [Example V-4, 2,5-Dichloro-N-(2,2-difluoroethyl)pyrimidin-4-amine] | – | 1.96

Same assay, conditions: pH 2.3, log P (pH 2.3)

Row | Structure (SMILES) | chromatographic logP
22 | FC(F)CNc1nc(Cl)ncc1Cl [Example V-2, 2,5-Dichloro-N-(2,2-difluoroethyl)pyrimidin-4-amine] | 1.96
23 | COCC(C)Nc1nc(Cl)ncc1C(F)(F)F (stereo not drawn) [Example V-3, 2-Chloro-N-(3-methoxypropan-2-yl)-5-trifluoromethylpyrimidin-4-amine] | 2.75
24 | FC(F)(F)CNc1nc(Cl)ncc1Cl [Example V-5, 2,5-Dichloro-N-(2,2,2-trifluoroethyl)pyrimidin-4-amine] | 2.26
25 | CC1CC(Nc2nc(Cl)ncc2Br)C1 (stereo not drawn) [Example V-6, 5-Bromo-2-chloro-N-(3-methylcyclobutyl)pyrimidin-4-amine] | 3.47
26 | CN(c1nc(Cl)ncc1Cl)C1CC1 [Example V-26, 2,5-Dichloro-N-methyl-N-cyclopropylpyrimidin-4-amine] | 2.82
27 | CC1(C)CC1Nc1nc(Cl)ncc1Cl (stereo not drawn) [Example V-27, 2,5-Dichloro-N-(2,2-dimethylcyclopropyl)pyrimidin-4-amine] | 3.04
28 | Fc1cnc(Cl)nc1NC1CCC1 [Example V-28, 5-Fluoro-2-chloro-N-cyclobutylpyrimidin-4-amine] | 2.17
29 | Clc1ncc(Cl)c(NC2COC2)n1 [Example V-29, 2,5-Dichloro-N-(oxetan-3-yl)pyrimidin-4-amine] | 1.31
30 | COCC(C)Nc1nc(Cl)ncc1C#N (stereo not drawn) [Example V-30, 2-Chloro-4-[(1-methoxypropan-2-yl)-amino]pyrimidine-5-carbonitrile] | 1.83
